Data: patent US9056859B2, “Inhibitors of the renal outer medullary potassium channel” (Merck Sharp & Dohme Corp., priority 2010, dated 2015)
pIC50: −log10 of the molar value.

Each compound was assayed against Kir1.1 (ROMK1) (Homo sapiens (Human), UniProt P48048) (assay: ROMK electrophysiology assay (IonWorks Quattro whole cell voltage clamp)). Details: not given.
Assay type: cell-based

Sequence of Kir1.1 (ROMK1) (P48048 whole entry): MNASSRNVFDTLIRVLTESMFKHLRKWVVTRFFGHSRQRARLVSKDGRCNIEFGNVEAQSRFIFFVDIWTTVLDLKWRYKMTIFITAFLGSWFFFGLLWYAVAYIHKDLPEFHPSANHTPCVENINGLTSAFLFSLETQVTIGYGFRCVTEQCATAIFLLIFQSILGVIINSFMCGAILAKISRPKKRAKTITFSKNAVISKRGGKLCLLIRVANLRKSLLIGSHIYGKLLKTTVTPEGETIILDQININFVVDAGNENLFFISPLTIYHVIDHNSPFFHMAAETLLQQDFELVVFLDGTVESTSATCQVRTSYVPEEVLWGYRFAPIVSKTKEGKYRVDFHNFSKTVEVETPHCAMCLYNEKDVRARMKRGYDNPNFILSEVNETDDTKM

Row | Structure (SMILES) | pIC50
1 | O=C1OCc2cc(CCN3CCCN(C(=O)Cc4ccc(-n5cnnn5)cc4)CC3)ccc21 [Example 11] | 7.92
2 | COc1cc(CC(=O)N2CCN(CCc3ccc4c(c3C)COC4=O)CC2)c(F)cc1C#N [Example 48] | 7.46

Same assay, conditions: Chinese hamster ovary cells stably expressing Kir1.1; block during voltage step to 0 mV; 6 min compound incubation; read-out: ROMK Electrophysiology Assay IC50

Row | Structure (SMILES) | pIC50
3 | Cc1c(CCN2CCN(C(=O)C3CCc4nc(-n5cnnn5)ccc43)CC2)ccc2c1COC2=O (single isomer, unassigned) [Example 96] | 7.21
4 | C[C@H]1Cc2cc(CCN3CCN(C(=O)C4CCc5nc(-n6cnnn6)ccc54)CC3)ccc2C(=O)O1 (single isomer, unassigned) [Example 177] | 7.00
5 | N#Cc1ccc(CCN2CCN(C(=O)Cc3ccc(-n4cnnn4)cc3)CC2)cc1F [Example 39] | 7.20
6 | Cc1c(CCN2CCN(C(=O)Cc3cc(F)c(C#N)cc3F)CC2)ccc2c1COC2=O [Example 59] | 7.03
7 | Cc1c(CCN2CCN(C(=O)Cc3ccc(-n4cnnn4)cc3)CC2)ccc(F)c1C#N [Example 122] | 7.43
8 | Cc1c([C@@H](O)CN2CCN(C(=O)Cc3ccc(-n4cnnn4)nc3)C3CC32)ccc2c1COC2=O (stereo partly drawn) [Example 217, 5-[(1R)-1-hydroxy-2-(5-{[6-(1H-tetrazol-1-yl)pyridin-3-yl]acetyl}-2,5-diazabicyclo[4.1.0]hept-2-yl)ethyl]-4-methyl-2-benzofuran-1(3H)-one] | 7.25
